Where a name gives a salt, the structure may show the parent alone. Read-outs that look alike come from different tables or passages of the source. A value given as a limit tells only on which side of the number the result lay.

The subject of assay [1] is MCF-7 CCT (cancer cell tubulin). In words: Fluorescence (DAPI) tubulin polymerization microassay, MCF-7 cancer cell tubulin. The following applies: BBT EC50 divided by MCF-7 CCT EC50.
Description: Compounds were assayed in the standard glycerol containing (vinblastine and colchicine) or no glycerol containing (paclitaxel) formats. […] Twenty four micrograms of CCT in G-PEM with 10 uM DAPI plus glycerol (colchicine and vinblastine) or minus glycerol (paclitaxel) at 4° C. was pipetted into wells of the 384-well plate which contained 1.3 ul of 10× strength compound concentration and incubated at 37° C. Tubulin polymerization was detected by measuring the fluorescence of the solution (Ex 360 nm, Em 405 nm) over time. Each set of data, A through I, represents six duplicate polymerization assays from one experiment, the duplicates contain either a 20% glycerol control or one of five compound concentrations (0.1, 0.3, 1.0, 3.0 or 10 uM). Paclitaxel experiments were repeated n=3 for neuronal, n=5 for HeLa and n=2 for MCF-7. Vinblastine experiments were repeated n=2 for neuronal, n=5 for HeLa and n=2 for MCF-7. Colchicine experiments were repeated n=2 for neuronal, HeLa and MCF-7. […]
Using the conditions described in FIG. 9, we measured eleven taxol analogs against BBT and MCF-7 CCT. TLI's were calculated by the method described in FIG. 11. […]
A fluorescent plate reader is tuned to 360 nm excitation wavelength and 405 to 475 nm emission wavelength, a 384 well plate was placed into the machine and it was pre-warmed to 37° C.
For assay [2], the system named is HeLa CCT (cancer cell tubulin). Kind of assay: Fluorescence (DAPI) tubulin polymerization microassay, HeLa cancer cell tubulin. Type of assay: biochemical. The following applies: for Tubulin Ligand Index (TLI) ratio, HeLa: BBT EC50 divided by HeLa CCT EC50; for EC50: 2 mg/ml tubulin, enhancer format without glycerol, 50% of 20% glycerol control Vmax, read-out: EC50 using HeLa CCT. From the text:
(§1) A plot of log10 of concentration (X-axis) and Percent Vmax (control) (Y-axis) is made for each compound.

The target of assay [3] is Bovine brain tubulin (mainly isotypes βII and βIII). The following applies: cited from earlier work.
The test system of assay [4] is Bovine brain tubulin (BBT, neuronal tubulin). Kind of assay: Fluorescence (DAPI) tubulin polymerization microassay, bovine brain tubulin. Conditions: 2 mg/ml tubulin, enhancer format without glycerol; 50% of 20% glycerol control Vmax; read-out: EC50 using neuronal tubulin. Type of assay: biochemical.
Description: as §1

Assay [5] deals with HeLa CCT (cancer cell tubulin). The following applies: BBT IC50 divided by HeLa CCT IC50; IC50 estimated from 50% intercept of dose response curve; cited from earlier work.

Take `CC(=O)O[C@@]12CO[C@@H]1C[C@H](O)[C@@]1(C)C(=O)[C@H](O)C3=C(C)[C@@H](O)C[C@@](O)([C@@H](OC(=O)c4ccccc4)[C@H]21)C3(C)C` [10-Deacetyl-baccatin-III]: the “Tubulin Ligand Index (TLI) ratio, MCF-7” value in assay [1] is recorded as 0.28. For the same compound, the “Tubulin Ligand Index (TLI) ratio, HeLa” value in assay [2] is below 0.01.

Take `N=C(N)c1ccc(-c2cc3ccc(C(=N)N)cc3[nH]2)cc1` [DAPI, 4′, 6-diamidino-2-phenylindole-HCl]: the Kd in assay [3] (bovine brain tubulin in the monomer form, read-out: Kd (affinity constant) for DAPI, monomer form) is 43000 nM; in assay [3] (bovine brain tubulin in the polymer form, read-out: Kd (affinity constant) for DAPI, polymer form), 6000 nM.

For the compound `CC(=O)O[C@@]12CO[C@@H]1C[C@H](O)[C@@]1(C)C(=O)[C@H](O)C3=C(C)[C@@H](OC(=O)[C@H](O)[C@@H](NC(=O)OC(C)(C)C)c4ccccc4)C[C@@](O)([C@@H](OC(=O)c4ccccc4)[C@H]21)C3(C)C` [docetaxel], the EC50 in assay [4] is 140 nM. In assay [2], the EC50 turned out to be 150 nM and the “Tubulin Ligand Index (TLI) ratio, HeLa” value was 0.93.

Turning to `CC(=O)O[C@H]1C(=O)[C@@]2(C)[C@H]([C@H](OC(=O)c3ccccc3)[C@]3(O)C[C@H](OC(=O)[C@H](O)[C@@H](NC(=O)c4ccccc4)c4ccccc4)C(C)=C1C3(C)C)[C@]1(OC(C)=O)CO[C@@H]1C[C@@H]2O` [paclitaxel], the EC50 in assay [4] amounted to 150 nM; in assay [2] it was 790 nM.

As to `CC[C@]1(O)C[C@@H]2CN(CCc3c([nH]c4ccccc34)[C@@](C(=O)OC)(c3cc4c(cc3OC)N(C)[C@H]3[C@@](O)(C(=O)OC)[C@H](OC(C)=O)[C@]5(CC)C=CCN6CC[C@]43[C@@H]65)C2)C1` [vinblastine], the “Tubulin Ligand Index (TLI), BBT vs HeLa CCT, measured by Zentaris GmbH” value in assay [5] was 1.0.

For Disorazol E1, in assay [5], the “Tubulin Ligand Index (TLI), BBT vs HeLa CCT, measured by Zentaris GmbH” value was 2.0.

The term Kd denotes the free concentration of one partner at which half of the binding sites on the other are occupied at equilibrium, for simple one-to-one binding. A word on the EC50: it is the concentration needed to bring the measured effect to its halfway point.

The values above are taken from patent US20060008864A1, “Methods to measure compound specificity” (priority 2004, published 2006).
